This is an account of results in patent publication US20250313596A1, “BACILLUS SUBTILIS STRAINS PRODUCING NEW MYCOSUBTILIN ISOFORMS” (Universite de Lille, priority 2022, published 2025).

As a reminder, the MIC is the least concentration at which growth counts as inhibited.

Converted amounts (≈) assume the structure as drawn. Where two headings read alike, the source gives them in different places. Where a SMILES comes first, the peptide text is derived from it. [ ]: non-standard residue; d: D form.

For series [1], the system named is B. cinerea. Type of series: cell-based. The note with it: for ECS0 (μg/ml) B. cinerea: concentration that reduces fungal strain growth by 50%; for EC95 (μg/ml) B. cinerea: concentration that reduces pathogen growth by 95%. The method, then:
(§1) Three different fungal strains were tested for their antifungal activity: B. cinerea, Aspergillus sp. and Z. tritici. In addition to the two conventional isoforms, three new isoforms are being tested for their antifungal properties. A range of concentrations (μg a.i./ml or ppm) 0; 0.0037; 0.0146; 0.0586; 0.2344; 0.9375; 3.75 and 15 is used to determine the activity coefficient. Based on this concentration range, the EC50 (concentration that reduces fungal strain growth by 50%) and EC95 (concentration that reduces pathogen growth by 95%) were calculated and presented as disclosed in Table 5.
4.1 Antifungal Activity on B. cinerea

For series [2], the system named is Vero cells. Type of series: cell-based. The method, then: The cytotoxicity test is performed using Vero cells and the CyQUANT™ XTT Cell Viability assay kit (supplied by Invitrogen™).
Samples are dissolved in 100% DMSO at a concentration of 20-50 g/L. The final concentration in DMEM medium is 40 μg/L. Cells were prepared in flasks containing DMEM cell culture medium with 10% FBS as follows:
A 175 ml flask containing 20-30 million cells with 25 ml medium and 2 ml trypsin was added. Then the medium was discarded as the cells were attached to the flask wall. Rinse twice with PBS, then trypsin was added to detach cells from the flask wall. The mixture was incubated for 5 min at 37° C. To inactivate trypsin, 6 ml […] was added to the medium (twice the volume of the original trypsin in the medium).
In a 50 ml flask, the medium was centrifuged for 5 min at 300 g. […]. The medium was discarded, and the cells were resuspended. 100 μL of cells were added to 100 μL of dye, then 12 μL was used for counting. The percentage of viability was compared with a control of cells without any treatment.
The test is performed in a 96-well plate. A range of concentrations (mg/l) 0.14; 0.28; 0.56; 1.16; 2.25; 4.5 is used to determine the toxicity limit of each isoform.

Series [3] relates to Z. tritici. Type of series: cell-based. As to conditions: for ECS0 (μg/ml) Z. tritici: concentration that reduces fungal strain growth by 50%; for EC95 (μg/ml) Z. tritici: concentration that reduces pathogen growth by 95%. The method, then:
as §1
4.3 Antifungal Activity on Z. Tritici

Series [4] concerns Aspergillus sp. Type of series: cell-based. The method, then:
as §1
4.2 Antifungal Activity on Aspergillus sp.

Series [5] deals with rats. As to conditions: 28-day treatment and 14 days recovery period; cited from earlier work.
The subject of series [6] is B. cinerea. The note with it: Béchet et al., 2013; cited from earlier work.
The subject of series [7] is A. niger. The note with it: Guez et al., 2022; cited from earlier work.

Take `CCCCCCCCCCCCCC1CC(=O)N[C@@H](CCC(N)=O)C(=O)N[C@H](Cc2ccc(O)cc2)C(=O)N[C@H](CC(N)=O)C(=O)N[C@@H](CCC(N)=O)C(=O)N2CCC[C@H]2C(=O)N[C@H](CO)C(=O)N[C@@H](CC(N)=O)C(=O)N1` (some centres unmarked) [Gln1-C16]: the EC50 value in series [1] is 1.048 ppm. In series [2], the “EC50 (cell viability)” value turned out to be 4.5 µg/mL (≈ 4.15 µM) and the “toxicity compared with the conventional isoform, in words” value is recorded as “significantly less toxic than the conventional A-C16 isoform”. The EC50 value in series [3] worked out at 1.906 ppm.
With `CCCCCCCCCCCCCC[C@@H]1CC(=O)N[C@@H](CCC(N)=O)C(=O)N[C@H](Cc2ccc(O)cc2)C(=O)N[C@H](CC(N)=O)C(=O)N[C@@H](CCC(N)=O)C(=O)N2CCC[C@H]2C(=O)N[C@H](CO)C(=O)N[C@@H](CC(N)=O)C(=O)N1` [Gln1-C17], the “antifungal efficacy in words” value in series [1] (B. cinerea) is given as “effective against this fungal strain, but at higher concentrations”. In series [1], the “ECS0 (μg/ml) B. cinerea” value was 0.920 µg/mL and the “EC95 (μg/ml) B. cinerea” value was found to be 1.117 µg/mL (≈ 1.02 µM). Moreover, the EC50 value in series [4] turned out to be 1.019 ppm. Besides, in series [4] (Aspergillus sp.), the EC95 value is recorded as 1.290 ppm and the “antifungal efficacy in words” value is given as “effective against this fungal strain”. Besides, the “EC50 (cell viability)” value in series [2] is “around 3.4 mg/L”. In addition, in series [3] (Z. tritici), the “antifungal efficacy in words” value was “effective against this fungal strain, but at a higher concentration”. Further, in series [3], the “ECS0 (μg/ml) Z. tritici” value was 2.156 µg/mL and the “EC95 (μg/ml) Z. tritici” value came out at 17.040 µg/mL (≈ 15.5 µM).
For `CCCCCCCCCCCCCC1CC(=O)N[C@@H](CC(N)=O)C(=O)N[C@H](Cc2ccc(O)cc2)C(=O)N[C@H](CCC(N)=O)C(=O)N[C@@H](CCC(N)=O)C(=O)N2CCC[C@H]2C(=O)N[C@H](CO)C(=O)N[C@@H](CC(N)=O)C(=O)N1` (some centres unmarked) [Gln3-C16], in series [2], the “EC50 (cell viability)” value is on record as “over 4.5 mg/L” and the “toxicity compared with the conventional isoform, in words” value is reported as “significantly less toxic than the conventional A-C16 isoform”.
For the compound `CCCCCCCCCCCCCC[C@@H]1CC(=O)N[C@@H](CC(N)=O)C(=O)N[C@H](Cc2ccc(O)cc2)C(=O)N[C@H](CCC(N)=O)C(=O)N[C@@H](CCC(N)=O)C(=O)N2CCC[C@H]2C(=O)N[C@H](CO)C(=O)N[C@@H](CC(N)=O)C(=O)N1` [Gln3-C17] (HELM PEPTIDE1{N.[dY].[dQ].Q.P.[dS].N.[CCCCCCCCCCCCCC[C@H](CC(=O)[*:2])N[*:1]]}$PEPTIDE1,PEPTIDE1,1:R1-8:R2$$$V2.0), in series [1], the “ECS0 (μg/ml) B. cinerea” value came to 1.646 µg/mL and the “EC95 (μg/ml) B. cinerea” value was 3.437 µg/mL (≈ 3.13 µM). Also, the “ECS0 (μg/ml) Aspergillus sp.” value in series [4] (concentration that reduces fungal strain growth by 50%) was found to be 6.335 µg/mL. Moreover, in series [4] (concentration that reduces pathogen growth by 95%), the “EC95 (μg/ml) Aspergillus sp.” value was 13.659 µg/mL (≈ 12.4 µM). Besides, the “EC50 (cell viability)” value in series [2] is given as “over 4.5 mg/L”. Further, in series [3], the “ECS0 (μg/ml) Z. tritici” value stood at 4.314 µg/mL and the “EC95 (μg/ml) Z. tritici” value stood at 16.078 µg/mL (≈ 14.6 µM).
As to Iturin A, the “toxic effects on organs, in words” value in series [5] was “no toxic effects on the lungs, heart and kidneys”.
Regarding “conventional C17 isoform of mycosubtilin, ring Asn-Tyr-Asn-Gln-Pro-Ser-Asn (peaks 5, 6, 7; FIG. 1) (cyclo(N[dY][dN]QP[dS]N); not fully specified (N-terminus)) [A-C17]”, in series [1], the “ECS0 (μg/ml) B. cinerea” value worked out at 0.467 µg/mL and the “EC95 (μg/ml) B. cinerea” value was 0.677 µg/mL. Besides, in series [4] (Aspergillus sp.), the EC50 value was found to be 1.191 ppm and the EC95 value is on record as 1.905 ppm. The “higher concentration of the former required to have the same activity as the latter” value in series [4] (EC50, A-C17 versus Gln1-C17) is listed as 14%. Besides, the “higher concentration of the former required to have the same activity as the latter” value in series [4] (EC95, A-C17 versus Gln1-C17) is listed as 32%. In addition, the “EC50 (cell viability)” value in series [2] (Vero cells, XTT, range 0.14-4.5 mg/l, determined from FIG. 7) was “around 1.7 mg/L”. Besides, in series [3], the “ECS0 (μg/ml) Z. tritici” value stood at 0.943 µg/mL and the “EC95 (μg/ml) Z. tritici” value amounted to 18.010 µg/mL.
n-C16: the MIC in series [6] and in series [7] was 16 µM each time.
